Measured values reported in patent publication US20250034171A1, “IMIDAZOPYRIDINE AMIDES AND RELATED COMPOUNDS FOR USE IN THE TREATMENT OF BACTERIAL INFECTIONS” (priority 2021, published 2025).
Values after ≈ are worked out from the molar mass of the structure shown. Where two headings read alike, the source gives them in different places.

Tested on: Mycobacterium tuberculosis strain H37Rv
Assay: Test 2: MIC determination against M. tuberculosis, resazurin fluorescence
Assay type: cell-based
Conditions: Test 2, M. tuberculosis H37Rv; for MIC90: read-out: Bacterial activity MIC90; for IC50: read-out: Bacterial activity pMIC50 (converted)
[1] = Mycobacterium tuberculosis, H37RV

Compound	MIC90 [1]	IC50 [1]	Bacterial activity pMIC50	MIC90
CCc1nc2n(c1C(=O)NCc1ccc(-c3nc4n(n3)CC[C@H](C(F)(F)F)C4)cc1)C[C@H](C)CC2 (single isomer, unassigned) [Compound 65]	0.039 µM (≈ 0.019 µg/mL)	13500 pM	–	–
CCc1nc2n(c1C(=O)NCc1ccc(-c3nc4n(n3)CC[C@@H](C(F)(F)F)C4)cc1)CC[C@H](C)C2 (single isomer, unassigned) [Compound 66]	0.24 µM (≈ 0.117 µg/mL)	51300 pM	–	–
CCc1nc2n(c1C(=O)NCc1ccc(-c3nc4n(n3)CC[C@H](C(F)(F)F)C4)cc1)CC[C@@H](C)C2 (single isomer, unassigned) [Compound 67]	0.18 µM (≈ 0.0876 µg/mL)	40700 pM	–	–
CCc1nc2n(c1C(=O)NCc1ccc(-c3nc4n(n3)CC[C@H](C(F)(F)F)C4)cc1)CC[C@H](C)C2 (single isomer, unassigned) [Compound 68]	0.23 µM (≈ 0.112 µg/mL)	47900 pM	–	–
CCc1nc2n(c1C(=O)NCc1ccc(-c3nc4n(n3)CC[C@H](C(F)(F)F)C4)cc1)C[C@@H](C)CC2 (single isomer, unassigned) [Compound 69]	–	–	7.95	0.031 µM (≈ 0.0151 µg/mL)
CCc1nc2n(c1C(=O)NCc1ccc(-c3nc4n(n3)CC[C@@H](C(F)(F)F)C4)cc1)CC[C@@H](C)C2 (single isomer, unassigned) [Compound 70]	0.23 µM (≈ 0.112 µg/mL)	56200 pM	–	–
CCc1nc2n(c1C(=O)NCc1ccc(-c3nc4n(n3)CC[C@@H](C(F)(F)F)C4)cc1)C[C@H](C)CC2 (single isomer, unassigned) [Compound 71]	0.024 µM (≈ 0.0117 µg/mL)	9550 pM	–	–
CCc1nc2n(c1C(=O)NCc1ccc(-c3nc4n(n3)CC[C@@H](C(F)(F)F)C4)cc1)C[C@@H](C)CC2 (single isomer, unassigned) [Compound 72]	0.042 µM (≈ 0.0204 µg/mL)	13800 pM	–	–
CCc1nc2n(c1C(=O)NCc1ccc(-c3nc4n(n3)CC[C@H](C(F)(F)F)C4)cc1)C[C@@H](C)CC2 (single isomer, unassigned) [Compound 75]	–	–	7.48	0.086 µM (≈ 0.0418 µg/mL)
CCc1nc2n(c1C(=O)NCc1ccc(-c3nc4n(n3)CC[C@@H](C(F)(F)F)C4)c(F)c1)CCCC2 (single isomer, unassigned) [Compound 76]	–	–	7.55	0.09 µM (≈ 0.0441 µg/mL)
CCc1nc2ccccn2c1C(=O)NCc1ccc(-c2nc3n(n2)CC[C@@H](C(F)(F)F)C3)c(F)c1 (single isomer, unassigned) [Compound 78]	–	–	8.08	0.028 µM (≈ 0.0136 µg/mL)
CCc1nc2ccccn2c1C(=O)NCc1ccc(-c2nc3n(n2)CC[C@H](C(F)(F)F)C3)c(F)c1 (single isomer, unassigned) [Compound 79]	–	–	7.99	0.035 µM (≈ 0.017 µg/mL)
CCc1nn2c(c1C(=O)NCc1ccc(-c3nc4n(n3)CC[C@H](C(F)(F)F)C4)cc1)C[C@H](C)CC2 (single isomer, unassigned) [Compound 81]	0.19 µM (≈ 0.0924 µg/mL)	57500 pM	–	–
CCc1nn2c(c1C(=O)NCc1ccc(-c3nc4n(n3)CC[C@@H](C(F)(F)F)C4)cc1)C[C@@H](C)CC2 (single isomer, unassigned) [Compound 82]	0.087 µM (≈ 0.0423 µg/mL)	30900 pM	–	–
CCc1nn2c(c1C(=O)NCc1ccc(-c3nc4n(n3)CC[C@@H](C(F)(F)F)C4)cc1)C[C@H](C)CC2 (single isomer, unassigned) [Compound 83]	0.23 µM (≈ 0.112 µg/mL)	63100 pM	–	–
CCc1nc2ncc(C)cn2c1C(=O)NCc1ccc(-c2nc3n(n2)CCC(C)C3)cc1 (single isomer, unassigned) [Compound 94]	–	–	7.86	0.039 µM (≈ 0.0168 µg/mL)
CCc1nc2ncc(C)cn2c1C(=O)NCc1ccc(-c2nc3n(n2)CC[C@@H](C(C)(F)F)C3)cc1 (single isomer, unassigned) [Compound 104]	–	–	8.25	0.015 µM (≈ 0.00719 µg/mL)
CCc1nc2ncc(C)cn2c1C(=O)NCc1ccc(-c2nc3n(n2)CC[C@H](C(C)(F)F)C3)cc1 (single isomer, unassigned) [Compound 105]	–	–	8.24	0.014 µM (≈ 0.00671 µg/mL)

Compound	MIC90 [1]	IC50 [1]	Bacterial activity pMIC50	MIC90
CCc1nc2ncc(C)cn2c1C(=O)NCc1ccc(-c2cn3c(n2)CC(COC)CC3)cc1 (single isomer, unassigned) [Compound 118]	–	–	7.48	0.083 µM (≈ 0.0381 µg/mL)
CCc1nc2n(c1C(=O)NCc1ccc(-c3nc4n(n3)CC[C@H](C(F)(F)F)C4)cc1)CC[C@@H](O)C2 (single isomer, unassigned) [Compound 131]	> 0.5 µM	> 501000 pM	–	–
CCc1nc2n(c1C(=O)NCc1ccc(-c3nc4n(n3)CC[C@H](C(F)(F)F)C4)cc1)CC[C@H](O)C2 (single isomer, unassigned) [Compound 132]	> 0.45 µM	> 269000 pM	–	–
CCc1nc2n(c1C(=O)NCc1ccc(-c3nc4n(n3)CC[C@H](C(F)(F)F)C4)cc1)CC[C@H](OC)C2 (single isomer, unassigned) [Compound 135]	> 0.44 µM	> 224000 pM	–	–
CCc1nc2n(c1C(=O)NCc1ccc(-c3nc4n(n3)CC[C@H](C(F)(F)F)C4)cc1)CC[C@@H](C(F)(F)F)C2 (single isomer, unassigned) [Compound 136]	> 0.5 µM	> 501000 pM	–	–
CCc1nc2n(c1C(=O)NCc1ccc(-c3nc4n(n3)CC[C@H](C(F)(F)F)C4)cc1)CC[C@H](C(F)(F)F)C2 (single isomer, unassigned) [Compound 137]	> 0.5 µM	> 501000 pM	–	–
CCc1nc2n(c1C(=O)NCc1ccc(-c3nc4n(n3)CC[C@H](C(F)(F)F)C4)cc1)CC[C@@H](OC)C2 (single isomer, unassigned) [Compound 139]	> 0.45 µM	> 182000 pM	–	–
CCc1nc2ncc(C(F)(F)F)cn2c1C(=O)NCc1ccc(-c2nc3n(n2)CC[C@H](C)C3)cc1 (single isomer, unassigned) [Compound 191]	> 0.5 µM	> 501000 pM	–	–
CCc1nc2ncc(C)cn2c1C(=O)NCc1ccc(-c2nc3n(n2)CCC(C(F)(F)F)C3)nn1 (stereo not shown) [Compound 41]	> 0.5 µM	> 501000 pM	–	–
CCc1nc2ncc(C)cn2c1C(=O)NCc1ccc(-c2nc3n(n2)CCC(C(F)(F)F)C3)nc1 (stereo not shown) [Compound 43]	0.37 µM (≈ 0.179 µg/mL)	155000 pM	–	–
CCc1nc2ncc(C)cn2c1C(=O)NCc1cc(C)c(-c2nc3n(n2)CCC(C(F)(F)F)C3)c(F)c1 (stereo not shown) [Compound 44]	0.21 µM (≈ 0.108 µg/mL)	45700 pM	–	–
CCc1nc2ncc(C)cn2c1C(=O)NCc1cnc(-c2nc3n(n2)CCC(C(F)(F)F)C3)c(F)c1 (stereo not shown) [Compound 45]	1.05 µM (≈ 0.528 µg/mL)	245000 pM	–	–
CCc1nc2ncc(C)cn2c1C(=O)NCc1cnc(-c2nc3n(n2)CCC(C(F)(F)F)C3)c(C)c1 (stereo not shown) [Compound 46]	> 0.5 µM	> 501000 pM	–	–
O=C(NCc1cnc(-c2nc3n(n2)CCC(C(F)(F)F)C3)c(F)c1)c1c(C(F)(F)F)nc2ccccn12 (stereo not shown) [Compound 47]	> 0.5 µM	> 501000 pM	–	–
CCc1nc2ncc(OC)cn2c1C(=O)NCc1ccc(-c2nc3n(n2)CC[C@@H](C(F)(F)F)C3)cc1 [Compound 48]	0.026 µM (≈ 0.013 µg/mL)	8320 pM	–	–
CCc1nc2ccc(F)cn2c1C(=O)NCc1ccc(-c2nc3n(n2)CC[C@@H](C(F)(F)F)C3)cc1 [Compound 52]	0.16 µM (≈ 0.0778 µg/mL)	41700 pM	–	–
O=C(NCc1ccc(-c2nc3n(n2)CC[C@@H](C(F)(F)F)C3)cc1)c1c(C(F)(F)F)nc2ncccn12 [Compound 53]	0.036 µM (≈ 0.0183 µg/mL)	11000 pM	–	–
